Laboratory results from patent publication US20100298256A1, “ANTIVIRAL COMPOUNDS” (priority 2007, published 2010).

Legend:
in vivo = conditions: male, CD-1, mouse, plasma
Experimental: (§4) Plasma samples were collected at pre-dose, 1, 3, 6, 12, 24, 48, and 72 hours post-dose for P.O. treatment group and at pre-dose, 0.25, 2, 6, 12, 24, 48, and 72 hours post-dose for I.V. treatment group. All samples were collected within ±2 minutes of the targeted time.
(§5) Phenolphthalein was used as an internal standard. […] The samples were mixed by vortexing for 5 minutes, and centrifuged at 15,000 rpm at 4° C. for 10 minutes. A 150-μL aliquot of the supernatant was transferred to a 96-well plate and 10 uL of supernatant sample was injected into the LC-MS/MS system for analysis. In each analytical batch, PK samples were run concurrently with calibration standards (blank, 0, 5, 10, 25, 50, 100, 150, 300, and 500 ng/mL), and low, mid, high, and 10-fold dilution QC samples (15, 250, 400, and 2000 ng/m L).
A 1/Y^2 weighting factor was used.

[1] = Pharmacokinetic study after single oral and intravenous administration in male CD-1 mice
Experimental: as §4, §5
A 1/Y^2 weighting factor was used.

CEM cells = assay: CytoTox-ONE LDH release cytotoxicity assay, CEM; format: cell-based
Experimental: (§1) CytoTox-ONE™ homogeneous membrane integrity assay kits (Promega) was used in the cytotoxicity studies. The assay measured the release of lactate dehyrodegenase (LDH) from cells with damaged membranes in a fluorometric, homogeneous format. […] The amount of fluorescence produced is proportional to the number of lysed cells. The cytotoxicity assessment assay was performed using a designed plate format […] for allocation of media, drug, cells, and virus in a 96 well plate. Six serially diluted concentrations of octadecyl-ethanediol-modified (ODE) phosphodiester Ribavirin prodrug was applied to the cells to derive the TC50 (toxic concentration of the drug decreasing the cell viability by 50%), TC90 (toxic concentration of the drug decreasing the cell viability by 90%) and TC95 (toxic concentration of the drug decreasing the cell viability by 95%) values.

[2] = CytoTox-ONE LDH release cytotoxicity assay, CEM; format: cell-based; conditions: human, CEM cells, read-out: TC50 (toxic concentration decreasing cell viability by 50%)
Experimental: as §1

influenza A [3] = test system: influenza A
influenza A [4] = assay: microbe, parasite or virus in culture; conditions: MDCK, read-out: IC50 (minimum inhibitory drug concentration which reduces the CPE by 50%)
[5] = test system: HCV replicon AVA5 (genotype 1b, subgenomic replicon); assay: HCV replication in cell culture, AVA5 replicon line (blot hybridization of HCV RNA); format: cell-based; conditions: AVA5 cultures, daily treatment for three days, normalized to β-actin RNA
Experimental: (§2) Antiviral activity of the test compounds was assessed (Okuse et al., 2005, Antivir. Res. 65:23) in the stably HCV replicating line, AVA5 (genotype 1b, subgenomic, replicon, Blight et al., 2000, Sci. 290: 1972) and APC 103 ((genotype 1a, genomic replicon). (ODE) phosphodiester ribavirin prodrug were added to dividing cultures daily for three days. Cultures generally start the assay at 30-50% confluence and reach confluence during the last day of treatment. Intracellular HCV RNA levels and cytotoxicity (on 96 well plates) were used. A total of 12 untreated control cultures and triplicate cultures treated with α-interferon and 2′CmeC served as assay controls.
(§3) Triplicate cultures for HCV RNA levels were measured using a conventional blot hybridization method in which HCV RNA levels were normalized to the levels of β-actin RNA in each individual culture (Okuse et al., 2005, Antivir. Res. 65:23). Cytotoxicity was measured using an established neutral red dye uptake assay (Korba et al., 1992, Antivir. Res. 19:55, Okuse et al., Antivir. Res. 65:23). Test compounds were received as powders on dry ice and were dissolved in 100% tissue culture grade DMSO (Sigma, Inc.) at 10 mM. Aliquots of test compounds sufficient for one daily treatment were made in individual tubes and all material was stored at −20° C. […]

[6] = CytoTox-ONE LDH release cytotoxicity assay, HepG2; format: cell-based; conditions: human, HepG2 cells, read-out: TC50 (toxic concentration decreasing cell viability by 50%)
Experimental: as §1

HepG2 cells = assay: CytoTox-ONE LDH release cytotoxicity assay, HepG2; format: cell-based
Experimental: as §1

[7] = test system: HCV replicon APC103 (genotype 1a, genomic replicon); assay: HCV replication in cell culture, APC103 replicon line (blot hybridization of HCV RNA); format: cell-based; conditions: APC103 cultures, daily treatment for three days, normalized to β-actin RNA
Experimental: as §2, §3

[8] = CytoTox-ONE LDH release cytotoxicity assay, PBMC; format: cell-based; conditions: PBMC cells, read-out: TC50 (toxic concentration decreasing cell viability by 50%)
Experimental: as §1

PBMC cells = assay: CytoTox-ONE LDH release cytotoxicity assay, PBMC; format: cell-based
Experimental: as §1

in vitro = conditions: dog
AVA5 and APC103 cultures = assay: Cytotoxicity by neutral red dye uptake in the HCV replicon cultures; format: cell-based; conditions: at the concentrations used for the antiviral analyses
Experimental: as §2, §3

Q: Which AUC(0-inf) (in vivo; iv, 5 mg/kg) does the source give for `CCCCCCCCCCCCCCCCCCOCCOP(=O)(O)OC[C@H]1O[C@@H](n2cnc(C(N)=O)n2)[C@H](O)[C@@H]1O` [(ODE) phosphodiester ribavirin prodrug, 1-(5-O-{hydroxy[2-(octadecyloxy)ethoxy]phosphoryl}-beta-D-ribofuranosyl)-1H-1,2,4-triazole-3-carboxamide] here?
A: Its AUC(0-inf) is 2660 ng·h/mL.

Q: What about the AUC(0-t) (in vivo; iv, 5 mg/kg) of the same molecule?
A: Its AUC(0-t) is 2640 ng·h/mL.

Q: And the Cmax (in vivo; iv, 5 mg/kg)?
A: The Cmax was 1960 ng/mL.

Q: What about the Tmax (in vivo; iv, 5 mg/kg) of the same molecule?
A: The Tmax was 0.25 h.

Q: What about the clearance (in vivo; iv, 5 mg/kg) of the same molecule?
A: The clearance was 31.3 mL/min/kg.

Q: What about the half-life (in vivo; iv, 5 mg/kg) of the same molecule?
A: Its half-life is 1.13 h.

Q: What about the bioavailability (in vivo; oral, 30 mg/kg) of the same molecule?
A: The bioavailability was 10.7%.

Q: And the AUC(0-inf) (in vivo; po, 30 mg/kg)?
A: Its AUC(0-inf) is 1700 ng·h/mL.

Q: What about the AUC(0-t) (in vivo; po, 30 mg/kg) of the same molecule?
A: The AUC(0-t) was 1660 ng·h/mL.

Q: What about the Cmax (in vivo; po, 30 mg/kg) of the same molecule?
A: Its Cmax is 407 ng/mL.

Q: And the Tmax (in vivo; po, 30 mg/kg)?
A: The Tmax was 3 h.

Q: What about the “plasma levels (below LLOQ)” value ([1]; IV 5 mg/kg, from 12 hours to 72 hours post-dose) of the same molecule?
A: Its value is less than 5 ng/mL.

Q: What about the “plasma levels (below LLOQ)” value ([1]; PO 30 mg/kg, from 24 hours to 72 hours post-dose) of the same molecule?
A: Its value is less than 5 ng/mL.

Q: What about the “TC90 (toxic concentration decreasing cell viability by 90%)” value (CEM cells) of the same molecule?
A: The value was 63.41 µM.

Q: What about the “TC95 (toxic concentration decreasing cell viability by 95%)” value (CEM cells) of the same molecule?
A: Its value is 84.55 µM.

Q: And the CC50 [2]?
A: Its CC50 is 14.1 µM.

Q: What about the “therapeutic index (TI50 = TC50 / IC50)” value (influenza A [3]) of the same molecule?
A: Its value is “greater than 210”.

Q: And the IC50 (influenza A [4])?
A: The IC50 was less than 0.316 µM.

Q: And the “intracellular HCV RNA levels” value [5]?
A: The value was “selective reductions in intracellular HCV RNA levels”.

Q: What about the CC50 [6] of the same molecule?
A: The CC50 was 13.2 µM.

Q: And the “TC90 (toxic concentration decreasing cell viability by 90%)” value (HepG2 cells)?
A: Its value is 28.32 µM.

Q: And the “TC95 (toxic concentration decreasing cell viability by 95%)” value (HepG2 cells)?
A: Its value is 41.69 µM.

Q: And the “intracellular HCV RNA levels” value [7]?
A: The value was “selective reductions in intracellular HCV RNA levels”.

Q: And the CC50 [8]?
A: Its CC50 is 111 µM.

Q: And the “TC90 (toxic concentration decreasing cell viability by 90%)” value (PBMC cells)?
A: Its value is 245 µM.

Q: What about the “TC95 (toxic concentration decreasing cell viability by 95%)” value (PBMC cells) of the same molecule?
A: The value was 272 µM.

Q: And the CC50 (in vitro)?
A: The CC50 was 66.4 µM.

Q: What about the “toxicity (significant = greater than 50% depression of the dye uptake levels observed in untreated cells)” value (AVA5 and APC103 cultures) of the same molecule?
A: Its value is “No significant toxicity”.

Q: With `NC(=O)c1ncn([C@@H]2O[C@H](CO)[C@@H](O)[C@H]2O)n1` [ribavirin, reference compound] as the molecule, how does the “toxicity (significant = greater than 50% depression of the dye uptake levels observed in untreated cells)” value (AVA5 and APC103 cultures) read?
A: Its value is “Significant toxicity”.
